Like-named read-outs stand apart in the source and are kept apart here.
Legend:
NCI/ADR-RES = test: NCI 60 cell line panel screen (SRB); format: cell-based, human
NCI-H522 = test: NCI 60 cell line panel screen (SRB); format: cell-based, human
SNB-19 = test: NCI 60 cell line panel screen (SRB); format: cell-based, human
NCI-H460 = test: NCI 60 cell line panel screen (SRB); format: cell-based, human
HT29 = test: NCI 60 cell line panel screen (SRB); format: cell-based, human
HCT-116 = test: NCI 60 cell line panel screen (SRB); format: cell-based, human
IGROVI = test: NCI 60 cell line panel screen (SRB); format: cell-based, human
HCT-15 = test: NCI 60 cell line panel screen (SRB); format: cell-based, human
A549/ATCC = test: NCI 60 cell line panel screen (SRB); format: cell-based, human
SF-539 = test: NCI 60 cell line panel screen (SRB); format: cell-based, human
T-47D = test: NCI 60 cell line panel screen (SRB); format: cell-based, human
NCI-H322M = format: cell-based
786-0 = test: NCI 60 cell line panel screen (SRB); format: cell-based, human
OVCAR-3 = test: NCI 60 cell line panel screen (SRB); format: cell-based, human
COLO 205 = test: NCI 60 cell line panel screen (SRB); format: cell-based, human
HL-60(TB) = test: NCI 60 cell line panel screen (SRB); format: cell-based, human
UO-31 = test: NCI 60 cell line panel screen (SRB); format: cell-based, human
[1] = system: chloroquine-sensitive P. falciparum (NF54); test: Antimalarial activity in vitro, [3H]hypoxanthine incorporation; format: cell-based
MCF7 = test: NCI 60 cell line panel screen (SRB); format: cell-based, human
TK-10 = test: NCI 60 cell line panel screen (SRB); format: cell-based, human
MALME-3M = test: NCI 60 cell line panel screen (SRB); format: cell-based, human; details: MALME-3M (Melanoma)
60 cell line panel = format: cell-based
[2] = mean value over the 60 cell line panel

CC1CCC2C(C)C(CC(O)(CO)CC3OC4OC5(C)CCC6C(C)CCC(C3C)C46OO5)OC3OC4(C)CCC1C32OO4 (centres unmarked) [Compound 5, bis-trioxane vicinal diol]
Log10GI50 (NCI/ADR-RES; Breast Cancer, NCI/ADR-RES): −4.75
Log10LC50 (NCI/ADR-RES; NCI/ADR-RES (Breast Cancer), LC50: PG=−50): >−4.00 log10M
Log10TGI50 (NCI-H522; NCI-H522 (Non-Small Cell Lung Cancer), TGI: PG=0): −4.59 log10M
Log10LC50 (NCI-H522; NCI-H-522 (Non-Small Cell Lung Cancer), LC50: PG=−50): −4.17 log10M
Log10GI50 (NCI-H522; Non-Small Cell Lung Cancer, NCI-H522): −7.33
Log10GI50 (SNB-19; CNS Cancer, SNB-19): −4.82
Log10LC50 (SNB-19; SNB-19 (CNS Cancer), LC50: PG=−50): >−4.00 log10M
Log10TGI50 (SNB-19; SNB-19 (CNS Cancer), TGI: PG=0): −4.34 log10M
Log10LC50 (NCI-H460; NCI-H460 (Non-Small Cell Lung Cancer), LC50: PG=−50): >−4.00 log10M
Log10TGI50 (NCI-H460; NCI-H460 (Non-Small Cell Lung Cancer), TGI: PG=0): −4.40 log10M
Log10GI50 (NCI-H460; Non-Small Cell Lung Cancer, NCI-H460): −5.02
Log10GI50 (HT29; Colon Cancer, HT29): <−8.00
Log10LC50 (HT29; HT29 (Colon Cancer), LC50: PG=−50): >−4.00 log10M
Log10TGI50 (HT29; HT29 (Colon Cancer), TGI: PG=0): >−4.00 log10M
Log10GI50 (HCT-116; Colon Cancer, HCT-116): −4.72
Log10LC50 (HCT-116; HCT-116 (Colon Cancer), LC50: PG=−50): >−4.00 log10M
Log10TGI50 (HCT-116; HCT-116 (Colon Cancer), TGI: PG=0): >−4.00 log10M
Log10LC50 (IGROVI; IGROVI (Ovarian Cancer), LC50: PG=−50): −4.17 log10M
Log10TGI50 (IGROVI; IGROVI (Ovarian Cancer), TGI: PG=0): −4.57 log10M
Log10GI50 (IGROVI; Ovarian Cancer, IGROVI): −4.97
Log10GI50 (HCT-15; Colon Cancer, HCT-15): −5.28
Log10LC50 (HCT-15; HCT-15 (Colon Cancer), LC50: PG=−50): −4.03 log10M
Log10TGI50 (HCT-15; HCT-15 (Colon Cancer), TGI: PG=0): −4.53 log10M
Log10LC50 (A549/ATCC; A549/ATCC (Non-Small Cell Lung Cancer), LC50: PG=−50): −4.11 log10M
Log10TGI50 (A549/ATCC; A549/ATCC (Non-Small Cell Lung Cancer), TGI: PG=0): −4.82 log10M
Log10GI50 (A549/ATCC; Non-Small Cell Lung Cancer, A549/ATCC): −7.59
Log10GI50 (SF-539; CNS Cancer, SF-539): −4.86
Log10LC50 (SF-539; SF-539 (CNS Cancer), LC50: PG=−50): >−4.00 log10M
Log10TGI50 (SF-539; SF-539 (CNS Cancer), TGI: PG=0): −4.41 log10M
Log10GI50 (T-47D; Breast Cancer, T-47D): −7.23
Log10LC50 (T-47D; T-47D (Breast Cancer), LC50: PG=−50): >−4.00 log10M
Log10TGI50 (T-47D; T-47D (Breast Cancer), TGI: PG=0): −4.48 log10M
Log10LC50 (NCI-H322M; NCI-H322M (Non-Small Cell Lung Cancer), LC50: PG=−50): −4.16 log10M
Log10TGI50 (NCI-H322M; NCI-H322M (Non-Small Cell Lung Cancer), TGI: PG=0): −4.44 log10M
Log10GI50 (NCI-H322M; Non-Small Cell Lung Cancer, NCI-H322M): −4.71
Log10LC50 (786-0; 786-0 (Renal Cancer), LC50: PG=−50): >−4.00 log10M
Log10TGI50 (786-0; 786-0 (Renal Cancer), TGI: PG=0): −4.36 log10M
Log10GI50 (786-0; Renal Cancer, 786-0): −4.87
Log10LC50 (OVCAR-3; OVCAR-3 (Ovarian Cancer), LC50: PG=−50): >−4.00 log10M
Log10TGI50 (OVCAR-3; OVCAR-3 (Ovarian Cancer), TGI: PG=0): −4.45 log10M
Log10GI50 (OVCAR-3; Ovarian Cancer, OVCAR-3): −5.09
Log10LC50 (COLO 205; COLO 205 (Colon Cancer), LC50: PG=−50): −4.15 log10M
Log10TGI50 (COLO 205; COLO 205 (Colon Cancer), TGI: PG=0): −4.87 log10M
Log10GI50 (COLO 205; Colon Cancer, COLO 205): <−8.00
Log10LC50 (HL-60(TB); HL-60(TB) (Leukemia), LC50: PG=−50): >−4.00 log10M
Log10GI50 (HL-60(TB); Leukemia, HL-60(TB)): <−8.00
Log10GI50 (UO-31; Renal Cancer, UO-31): −7.38
Log10LC50 (UO-31; UO-31 (Renal Cancer), LC50: PG=−50): −4.26 log10M
Log10TGI50 (UO-31; UO-31 (Renal Cancer), TGI: PG=0): −4.68 log10M
IC50 [1]: below one nM
antimalarial potency in vitro relative to artemisinin [1]: 10 times
IC50 ([1]; Table I, NF54 strain, read-out: IC50): 0.59 nM
Log10GI50 (MCF7; Breast Cancer, MCF7): <−8.00
Log10LC50 (MCF7; MCF7 (Breast Cancer), LC50: PG=−50): −4.22 log10M
Log10TGI50 (MCF7; MCF7 (Breast Cancer), TGI: PG=0): −4.88 log10M
Log10GI50 (TK-10; Renal Cancer, TK-10): −4.91
Log10LC50 (TK-10; TK-10 (Renal Cancer), LC50: PG=−50): −4.06 log10M
Log10TGI50 (TK-10; TK-10 (Renal Cancer), TGI: PG=0): −4.49 log10M
Log10LC50 (MALME-3M; LC50: PG=−50): −4.11 log10M
Log10TGI50 (MALME-3M; TGI: PG=0): −4.50 log10M
Log10GI50 Delta (60 cell line panel): 2.03
Log10GI50 Range (60 cell line panel): 3.47
Log10LC50 Delta (60 cell line panel; 60 cell line panel): 0.37
Log10LC50 Range (60 cell line panel; 60 cell line panel): 0.47
Log10TGI50 Delta (60 cell line panel; 60 cell line panel): 3.50
Log10TGI50 Range (60 cell line panel; 60 cell line panel): 4.00
growth inhibition and cytotoxicity in words (60 cell line panel; human cancer cell lines in general): strongly inhibitory but not cytotoxic
growth inhibition in words (60 cell line panel; leukemia cell line RPM 1-8226, melanoma cell line SK-MEL-5, renal cancer cell line ACHN): selectively and strongly inhibitory
Log10GI50 MG MID (60 cell line panel; mean over panel): −5.97
Log10LC50 MG MID (60 cell line panel; [2]): −4.09 log10M
Log10TGI50 MG MID (60 cell line panel; [2]): −4.50 log10M
